Assay results: ChEMBL document CHEMBL1201862, “PubChem BioAssay data set” (2004)
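Protocol summary: plate cells (96-well), add compound at 5 concentrations, incubate 48 h, interpolate endpoints linearly. Abbreviation: GI50, concentration required for 50% inhibition of growth.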 The source made the active and inactive calls. Rule as the data show it: active = GI50 up to about 1.1 µM and inactive = higher.

Assays:
Assay in all cases: DTP human tumour cell line panel, 48 h
[1] = tested on: T47D
[2] = tested on: NCI-H460
[3] = tested on: NCI-H23
[4] = tested on: 786-0
[5] = tested on: CAKI-1
[6] = tested on: SK-MEL-5
[7] = tested on: HL-60
[8] = tested on: TK-10
[9] = tested on: UACC-257
[10] = tested on: MDA-MB-435
[11] = tested on: SW-620
[12] = tested on: A498
[13] = tested on: SF-295
[14] = tested on: SR
[15] = tested on: HCT-116
[16] = tested on: MCF7
[17] = tested on: SNB-75
[18] = tested on: ACHN
[19] = tested on: SF-268
[20] = tested on: OVCAR-8
[21] = tested on: SK-MEL-28
[22] = tested on: SK-MEL-2
[23] = tested on: M14
[24] = tested on: MDA-MB-231
[25] = tested on: IGROV-1
[26] = tested on: OVCAR-5
[27] = tested on: K562
[28] = tested on: UACC-62
[29] = tested on: UO-31
[30] = tested on: EKVX
[31] = tested on: DU-145
[32] = tested on: U-251
[33] = tested on: Hs-578T
[34] = tested on: HCC 2998
[35] = tested on: KM12
[36] = tested on: A549
[37] = tested on: BT-549
[38] = tested on: HCT-15
[39] = tested on: Malme-3M
[40] = tested on: RXF 393
[41] = tested on: HT-29
[42] = tested on: OVCAR-4
[43] = tested on: HOP-62
[44] = tested on: SN12C
[45] = tested on: LOX IMVI
[46] = tested on: COLO 205
[47] = tested on: NCI-H226
[48] = tested on: RPMI-8226
[49] = tested on: PC-3
[50] = tested on: SK-OV-3
[51] = tested on: NCI/ADR-RES
[52] = tested on: SNB-19
[53] = tested on: OVCAR-3
[54] = tested on: NCI-H522

Measured: GI50

Cc1nc(Nc2ccc(F)cc2)c2sc(=S)n(-c3ccc(F)cc3)c2n1
inactive: [1] 5.31 µM | [2] 15.5 µM | [3] 4.24 µM | [4] 10 µM | [5] 18.3 µM | [6] 14.6 µM | [7] 23.6 µM | [8] 14.5 µM | [9] 13.4 µM | [10] 10.8 µM | [11] 9.77 µM | [12] 16 µM | [13] 14.3 µM | [14] 3.27 µM | [15] 3.74 µM | [16] 5.5 µM | [17] 16.1 µM | [18] 13.7 µM | [19] 11 µM | [20] 15.6 µM | [21] 14.7 µM | [22] 15.3 µM | [23] 2.94 µM | [24] 13.9 µM | [25] 10.6 µM | [26] 17.9 µM | [27] 33.2 µM | [28] 16.1 µM | [29] 16.5 µM | [30] 13.1 µM | [31] 13.4 µM | [32] 14.7 µM | [33] 14.5 µM | [34] 12.2 µM | [35] 15 µM | [36] 16 µM | [37] 13.3 µM | [39] 14.6 µM | [40] 12.6 µM | [41] 6.17 µM | [42] 15.5 µM | [43] 11.8 µM | [44] 14 µM | [45] 4.99 µM | [46] 14.5 µM | [47] 16.1 µM | [48] 5.01 µM | [49] 20.1 µM | [50] 19.4 µM | [51] 17.1 µM | [52] 14.7 µM | [53] 17.1 µM | [54] 16.1 µM
3.09 µM: [38]
